In patent US10815312B2, “Bifunctional peptide having capability to permeate cells and capability to regenerate muscles and use thereof” (Seoul National University R&DB Foundation, priority 2018, dated 2020):

Columns and labels:
intracellular HDAC5 = target: T1, intracellular HDAC5 (Mus musculus, UniProt Q9Z2V6); assay: Binding ability to intracellular HDAC5 by immunoprecipitation; details: C2C12 cells treated for 2 hours, immunoprecipitation with HDAC5 antibody, western blotting with FITC antibody (FIG. 2)
T1 construct: endogenous in cells; host or cells: C2C12 muscle precursor cells
Procedure: Muscle precursor cells (C2C12) were transplanted at a density of 1.5×10^6/well in a 10 pi dish and cultured in EMEM (Eagle's Minimal Essential Medium, ATCC). The medium was replaced at 24-hour intervals until confluency of cells reached 50%. When the confluency was 50%, the medium was replaced with Essential 8 medium, and the cells were treated with the peptide of SEQ ID NO: 1 for 2 hours. Then, the binding ability to intracellular HDAC5 was identified by immunoprecipitation. The lysate harvested with RIPA buffer containing a protease inhibitor was quantified through a BCA assay. Each sample quantified with a minimum volume of 500 μl at a concentration of 1 μg/ml was collected in a microtube, 2 μg of HDAC5 first antibody was added thereto, and the mixture was reacted under rotation for 16 hours at 4° C. in a refrigerated state. 20 μl of protein A/G agarose beads were added and reacted at 4° C. for 3 hours. Then, the beads were centrifuged, washed three times with DPBS and heated at 85° C. for 5 minutes in a 2× sample buffer, and only the supernatant was obtained, followed by western blotting and identification using an FITC antibody.

mesenchymal stem cells = assay: Differentiation of stem cells into myocytes, gene expression of muscle differentiation markers by real-time RT-PCR; type: cell-based; details: 100 μM peptide, muscle differentiation medium, real-time RT-PCR (FIG. 3)
Procedure: 3×10^6 mesenchymal stem cells were cultured in a bacterial culture dish for 3 days to form spheroids. The medium used was low-glucose DMEM with 10% FBS and 1% P/S. After 3 days, the supernatant was removed and only the spheroids were collected and seeded in a cell culture dish coated with 10 ug/ml of collagen type I for 4 days. The medium used was DMEM/F12 with 1 ng/ml TGFb (transforming growth factor beta), 1×NEAA (nonessential amino acids) and 1×ITS (insulin-transferrin selenium). After 4 days, the medium was changed to low-glucose DMEM with 2% FBS and 10 ng/ml IGF-1 (insulin growth factor-1), differentiation was further induced for 2 weeks, and muscle differentiation markers were identified. The cells were treated with 100 μM of the group not treated with peptide using only a muscle differentiation medium (NT), 100 μM of the groups treated with the peptides of SEQ ID NOS: 1 to 8 and 100 μM of the control peptide (SEQ ID NO: 9) in order to determine the efficiency of expression of the muscle differentiation markers by the peptides. The levels of gene expression of dystrophin and myogenin, as muscle differentiation markers, were measured through real-time RT-PCR. The base sequences of the PCR primers used for amplification of respective genes are as follows.

T1 sequence (Q9Z2V6 whole entry): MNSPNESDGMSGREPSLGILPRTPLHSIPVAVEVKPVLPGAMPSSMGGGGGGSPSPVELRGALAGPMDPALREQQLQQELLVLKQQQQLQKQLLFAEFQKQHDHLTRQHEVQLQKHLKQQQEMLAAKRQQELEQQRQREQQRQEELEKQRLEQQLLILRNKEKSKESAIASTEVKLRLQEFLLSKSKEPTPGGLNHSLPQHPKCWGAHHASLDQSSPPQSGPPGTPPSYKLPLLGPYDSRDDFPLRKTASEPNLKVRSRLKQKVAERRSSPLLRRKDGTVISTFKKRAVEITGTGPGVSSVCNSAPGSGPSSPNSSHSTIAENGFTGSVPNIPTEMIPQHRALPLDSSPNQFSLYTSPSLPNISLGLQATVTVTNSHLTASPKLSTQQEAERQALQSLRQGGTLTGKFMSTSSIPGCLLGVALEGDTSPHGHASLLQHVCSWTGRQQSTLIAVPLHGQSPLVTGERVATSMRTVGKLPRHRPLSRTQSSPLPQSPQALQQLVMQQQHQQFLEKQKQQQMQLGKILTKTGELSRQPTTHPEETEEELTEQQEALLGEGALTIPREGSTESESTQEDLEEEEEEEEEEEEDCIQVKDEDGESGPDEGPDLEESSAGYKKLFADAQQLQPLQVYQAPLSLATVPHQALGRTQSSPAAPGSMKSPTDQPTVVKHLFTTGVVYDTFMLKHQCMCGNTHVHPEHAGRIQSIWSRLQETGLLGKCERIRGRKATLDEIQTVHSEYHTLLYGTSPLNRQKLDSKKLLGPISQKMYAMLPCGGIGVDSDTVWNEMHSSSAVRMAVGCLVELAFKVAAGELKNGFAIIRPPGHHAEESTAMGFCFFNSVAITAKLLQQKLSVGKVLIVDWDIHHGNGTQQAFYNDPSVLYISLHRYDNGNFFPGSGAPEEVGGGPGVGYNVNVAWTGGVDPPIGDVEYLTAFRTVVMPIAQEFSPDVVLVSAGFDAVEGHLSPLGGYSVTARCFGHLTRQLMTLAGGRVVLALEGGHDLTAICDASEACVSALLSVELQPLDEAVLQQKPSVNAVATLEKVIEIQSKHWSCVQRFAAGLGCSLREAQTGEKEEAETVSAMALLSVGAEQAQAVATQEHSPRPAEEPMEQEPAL

binding to intracellular HDAC5 (intracellular HDAC5) | Sequence | gene expression of dystrophin (mesenchymal stem cells) | gene expression of myogenin (mesenchymal stem cells)
binds to intracellular HDAC5 | GKCSTRGRKCCRRKK [SEQ ID NO: 1] |  | 
 | GLRSKSKKFRRPDIQYPDA (Control peptide C1) [SEQ ID NO: 9] | did not exhibit an increase in gene expression | did not exhibit an increase in gene expression
